From patent US20230057979A1, “MEDICINAL COMPOSITIONS FOR CARBON DIOXIDE BASED METERED DOSE INHALERS” (KINDEVA DRUG DELIVERY L.P., priority 2020, published 2023)

Tests used:
[1] = Beclomethasone Dipropionate (BDP) Aerodynamic Particle Size Distribution (APSD) by NGI; assay type: physicochemical; conditions: Example 6 formulation, NGI 30 L/min, five actuations, average of three canisters
Protocol: APSD was determined using a Next Generation Impactor (NGI Model 170, Copley Scientific Limited UK) at a flow rate of 30±0.5 L/min drawn using a high-capacity pump (HCP5, Copley Scientific Limited, UK) the flow rate determined using a digital flow meter (Model 4043, TSI Instruments). The filter stage was fitted with a Whatman grade 934-AH glass microfiber filter. Units were tested at the start of life using a 3M Mark 6 actuator (3M, Loughborough, UK) with an exit orifice diameter of 0.25 mm and a jet length of 0.8 mm. Prior to testing, the inhaler was actuated five times to ensure the valve was primed after which the valve stem was cleaned and dried. The inhaler was then attached to the NGI with the use of an appropriate coupler and actuated five times into the NGI. The BDP was recovered from each component using methanol (HPLC grade, Thermo Fisher Scientific, Inc., Waltham, Mass.) using a volume of 10 mL for the stem/can, 30 mL for the throat/coupler, 5 mL for cups 1 to 4 and 20 mL for all other components. Recovery was performed using a rocker station (Gentle Rocker 4515, Copley Scientific Limited UK). Samples were assayed by reversed phase isocratic liquid chromatography using UV detection (Acquity H-Class UPLC, Waters Limited) with the parameter settings presented in Table 1. [table]

[2] = stated in description, cited from earlier work
[3] = Salbutamol Sulphate Aerodynamic Particle Size Distribution (APSD) by NGI; assay type: physicochemical; conditions: Example 7 formulation, NGI 30 L/min, six actuations, average of three canisters
Protocol: APSD was determined using a Next Generation Impactor as described in the BDP APSD test method. Prior to testing, the inhaler was actuated five times to ensure the valve was primed after which the valve stem was cleaned and dried. The inhaler was then attached to the NGI with the use of an appropriate coupler and actuated six times into the NGI. The Salbutamol sulphate was recovered from each component using a solution of acetonitrile/0.1% phosphoric acid in water (9:1 v/v) using a volume of 20 mL for the throat/coupler and 10 mL for all other components. Recovery was performed using a rocker station (Gentle Rocker, Copley Scientific Limited UK). Samples were assayed by reversed phase gradient liquid chromatography using UV detection (HP1100, Agilent Technologies UK Limited), with the parameter settings in Table 2 and Table 3. [table] [table]

CCC(=O)OCC(=O)[C@@]1(OC(=O)CC)[C@@H](C)C[C@H]2[C@@H]3CCC4=CC(=O)C=C[C@]4(C)[C@@]3(Cl)[C@@H](O)C[C@@]21C [BDP, beclomethasone dipropionate]
BDP deposited: Actuator [1]: 10.8 µg
BDP deposited: Cup 1 [1]: 0.3 µg
BDP deposited: Cup 2 [1]: 0.1 µg
BDP deposited: Cup 3 [1]: 0.1 µg
BDP deposited: Cup 4 [1]: 0.8 µg
BDP deposited: Cup 5 [1]: 4.3 µg
BDP deposited: Cup 6 [1]: 7.4 µg
BDP deposited: Cup 7 [1]: 4.7 µg
BDP deposited: Filter [1]: 1.6 µg
BDP deposited: MOC [1]: 5.9 µg
BDP deposited: Stem [1]: 3.6 µg
BDP deposited: Throat/Coupler [1]: 59.0 µg

O=C=O [carbon dioxide]
vapor pressure at about 20° C. ([2]; pure liquid propellant, about 20 °C): about 57 bar
vapor pressure at about 40° C. ([2]; pure liquid propellant, about 40 °C): about 80 bar
liquid to supercritical phase transition temperature or critical point temperature ([2]; pure propellant): about 31 °C

salbutamol sulphate [SS]
SS deposited: Actuator [3]: 7.9 µg
SS deposited: Cup 1 [3]: 0.20 µg
SS deposited: Cup 2 [3]: 0.07 µg
SS deposited: Cup 3 [3]: 0.45 µg
SS deposited: Cup 4 [3]: 2.5 µg
SS deposited: Cup 5 [3]: 3.7 µg
SS deposited: Cup 6 [3]: 2.1 µg
SS deposited: Cup 7 [3]: 0.60 µg
SS deposited: Filter [3]: 0.05 µg
SS deposited: MOC [3]: 0.29 µg
SS deposited: Stem [3]: 1.4 µg
SS deposited: Throat/Coupler [3]: 54.2 µg
